The record followed here is article PMC11843613, “Further Optimization of the mGlu1 PAM VU6024578/BI02982816: Discovery and Characterization of VU6033685” (ACS Chemical Neuroscience, 2025).

The nature of data set [1]: Plasma protein binding (dog). Particulars: pH 7.4, read-out: fu plasma (d). Format: in vitro ADME. The method, then:
page 13: at half log concentrations in DMSO were further diluted in assay buffer. The compounds or DMSO vehicle were added to cells and incubated for 2.5 min and an EC20 concentration of glutamate was added and incubated for 1 min. An ECmax concentration of glutamate was also added to cells that were incubated with DMSO vehicle to accurately calculate the EC20 calcium response. Data were normalized by subtracting the basal florescent peak before EC20 agonist addition from the maximal peak elicited by EC20 agonist and PAMs. Using GraphPad Prism 5.0, the concentration response curves were generated and the potencies of the mGlu1 PAMs were determined. DMPK Methods Plasma protein binding: The protein binding of each compound was determined in plasma via equilibrium dialysis employing RED Plates (ThermoFisher Scientific, Rochester, NY). Plasma was added to the 96 well plate containing test compound and mixed thoroughly for a final concentration of 5 µM. Subsequently, an aliquot of the plasma-compound mixture was transferred to the cis chamber (red) of the RED plate, with an phosphate buffer (25 mM, pH 7.4) in the trans chamber. The RED plate was sealed and incubated for 4 hours at 37°C with shaking. […] The in vitro half-life (T 1/2, min, Eq. 1), intrinsic clearance (CLint, mL/min/kg, Eq. 2) and subsequent predicted hepatic clearance (CLhep, mL/min/kg, Eq. 3) was determined S13

Data set [2] relates to MK-801 disruption of novel object recognition in rats. In words: Rat MK-801-induced disruption of novel object recognition (NOR). The class given is in vivo. The method, then:
mode (5.0 kV spray voltage). The calibration curves were constructed in blank plasma. All data were analyzed using AB Sciex Analyst software v1.5.1.
All animal study procedures were approved by the Institutional Animal Care and Use Committee and were conducted in accordance with the National Institutes of Health regulations of animal care covered in Principles of Laboratory Animal Care (National Institutes of Health). […]
GraphPad Prism (version 4.03, GraphPad, La Jolla, CA). […]
The animals are habituated to the novel object arenas for one day prior to testing. This is accomplished by placing the animal in the arena with no objects for 10 min and then placed back […]
into the home cage. The arena is then cleaned with 70% ethanol in between animals. The day of the test the animals are habituated to the dosing room for 2 hours. […]
The animals were then injected with MK-801 (0.075 mg/kg 1 ml/kg s.c.) and placed back in the homecage for 30 min. The animals are then placed into the arena with two identical familiar objects for ten minutes and then placed back into the home cage. The animals are then placed back into the arena with one of the familiar objects replaced with a novel object at 120 min after the familiar object exposure. The activity of the animals are recorded and the time spent exploring each of the objects is scored by a blinded observer. Recognition index is determined by subtracting the time spent with the […] divided by total time spent exploring. […]
NaCl, 26 mM NaHCO3, 11mM D-glucose, 2.5 mM KCl, 2.45mM CaCl2, 1.25mM NaH2PO4 and 1.2mM MgSO4 which was supplemented with 5mM sodium ascorbate. Slices were recovered for at least 1 hour prior to recording. During recording slices were perfused with aCSF in the absence of ascorbate and presence of […] DhβE to block nAChR-mediated dopamine release. […]
Briefly, a triangular voltage wave (-400 to +1000 mV at 300 V/sec) was applied to a fresh-cut carbon fiber electrode every 100 msec. […]

The structures appear in SMILES notation. Entries after “also recorded” stand apart in the source; their conditions may differ.

On to `Cc1nc(C2CC2)ccc1CNC(=O)c1cc(-n2cccn2)ccc1Cl` [compound 8], for which the fraction unbound at 4 h, 5 µM in data set [1] is 0.099. In addition, the “free brain level as fold of rat in vitro EC50 at 30 mg/kg in NOR” value in data set [2] (rat PO 30 mg/kg) was ~5.2 fold. For the same molecule, the “free brain level at 30 mg/kg in NOR” value in data set [2] (rat PO 30 mg/kg, 0.5% Natrasol/0.015% Tween 80 in water) came out at 579 nM. Also, the “reversal of MK-801 disruption of novel object recognition” value in data set [2] (rat, PO, MK-801 0.075 mg/kg SC, one-way ANOVA p = 0.13) was “dose-dependently reverse the deficits induced by MK-801; also recorded: dose-dependently reversed”.
